This note sets out measurements from publication PMC4176650 (BioMed Research International, 2014).

“Also recorded” adds a separate entry of the source. Like-named read-outs stand apart in the source and are kept apart here.

Series [1] deals with Lemna aequinoctialis Welv. Nature of the series: Lemna phytotoxicity assay. Conditions: seven days. How it is done: The assay was performed according to the modified protocol of Bremner. […] Sterilized conical flasks were inoculated with compounds with desired concentrations prepared from the stock solution and allowed to evaporate overnight. Each flask was inoculated with 20 mL of sterilized E-medium and ten Lemna aequinoctialis Welv. each containing a rosette of three fronds. Other flasks were supplemented with methanol serving as negative control and reference inhibitor, that is, phosphoroamide (a urease inhibitor already in commercial use) serving as positive control. The treatments were replicated three times and the flasks incubated at 30°C Fisons Fi-Totron 600 H growth cabinet for seven days, 9000 lux light intensity, 56 ± 10 rh (relative humidity), and 12 h day length. Growth of Lemna aequinocitalis in compound containing flask was determined by counting the number of fronds per dose and growth inhibition calculated with reference to negative control.

Series [2] can be described thus: Viability of human neutrophils (WST-1). Format: cell-based. Conditions: isolated human neutrophils; human neutrophils 1 × 10^7 cells/mL; conc. 200 µg/mL. How it is done: Heparinized fresh venous blood was drawn from healthy volunteers in a local blood bank and the neutrophils were isolated by developed method of McLaughlin et al.. 45 The whole blood was mixed with Ficoll-Paque (Pharmacia Biotech Amersham, Uppsala). After sedimentation the unwanted red blood cells (RBCs) were layered as a buffy coat on the cushion of Ficoll (3.0 mL). It was then centrifuged for 30 min. at 1500 rpm, and supernatant was discarded. Further treated with hypotonic ammonium chloride solution (0.83%) to lyse RBCs. The preparation was then centrifuged and the neutrophils were washed with Modified Hank's Solution (MHS) and resuspended at a concentration of 1 × 10^7 cells/mL.
Isolated human neutrophils (1 × 10^7 cells/mL) were incubated first with test compounds for 30 min., and then after the addition of 0.25 mM WST-1 (Dojindo Laboratories Kumamoto, Japan) in water bath shaker at 37°C [18, 19]. After 3 hrs incubation, change in the absorbance was measured at 450 nm in 96-well plate by using microplate reader Spectra MAX 340 (Molecular Devices, CA, USA). The OD is the mean of the five experimental replicates. The percentage (%) cell viability was calculated by using the following formula: (1) Percentage (%) viability of cells =[…].
In general terms: Formazan colour is commonly taken as a measure of viable cells.

For another series, the target named is Jack bean urease (Canavalia ensiformis, UniProt P07374). As to the kind of experiment: biochemical. Conditions: for Type of inhibition / Kmapp / Vmaxapp: Urease (JB); for Kmapp: Km without inhibitor 2.5 mM; for Vmaxapp: Vmax without inhibitor 105. As for the experimental part:
(§1) Reaction mixtures comprising 25 μL of enzyme (Jack bean and Bacillus pasteurii ureases) solution and 55 μL of buffers containing urea (2–24 mM for jack bean and Bacillus pasteurii ureases) were incubated with 5 μL of test compounds at 30°C for 4.15 min in 96-well plates. The increasing absorbance at 560 nm was measured after 10 min, using a microplate reader (Molecular Devices, USA). All reactions were performed in triplicate in a final volume of […]. The results (change in absorbance per min.) were processed by using SoftMax Pro software (Molecular Devices, USA). All the assays were performed at pH 6.8 (3 mM sodium phosphate buffer) and 7 μg of phenol red per mL as indicator [10]. Percentage inhibitions were calculated from the formula 100 − (ODtestwell/ODcontrol) × 100. Thiourea was used as the standard inhibitor of urease.
(§2) The concentration of tested compounds that inhibited the hydrolysis of substrates (Jack bean urease and Bacillus pasteurii ureases) by 50% (IC50) was determined by monitoring the effect of various concentrations of the compounds in the assays on the inhibition values. The IC50 (inhibitor conc. that inhibits 50% activity of both enzymes) values were then calculated using the EZ-Fit Enzyme Kinetics program (Perrella Scientific Inc., Amherst, USA).
(§3) Dissociation constant/inhibition constant (K i) were determined by the interpretation of Dixon plot. Lineweaver-Burk plot and their secondary replots using initial velocities obtained over a substrate concentration range between 2.0 and 24 mM urea for J.B. and B.P. ureases, respectively. Nonlinear regression equations were used to determine the values of K I, K m, and V max in the Lineweaver-Burk plot and Dixon plots. The K i values dissociation constant/inhibition constant of J.B. urease-inhibitor or B.P. urease-inhibitor complex into free J.B. urease or B.P. urease and inhibitor was determined graphically by Dixon plot and Lineweaver-Burk plots.

The target of series [3] is Bacillus pasteurii urease (Sporosarcina pasteurii, UniProt P41020). As to the kind of experiment: Urease assay and inhibition kinetics, Bacillus pasteurii urease. It is filed as biochemical. Set-up: Vmaxapp: unit not given here. The note with it: for Kmapp: Km without inhibitor 5.1 mM; for Vmaxapp: Vmax without inhibitor 160. How it is done:
as §1, §2, §3

Setting [4] is: Urease (BP), Dixon plot and secondary Lineweaver-Burk plot, pH 6.8, 30°C, read-out: Ki (µM) ± SEM.

Bacillus pasteurii urease, sequence (P41021 whole entry): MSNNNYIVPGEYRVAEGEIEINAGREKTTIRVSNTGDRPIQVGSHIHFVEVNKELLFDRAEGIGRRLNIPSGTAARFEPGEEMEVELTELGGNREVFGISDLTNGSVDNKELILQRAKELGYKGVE
Bacillus pasteurii urease, sequence (P41022 whole entry, further chain): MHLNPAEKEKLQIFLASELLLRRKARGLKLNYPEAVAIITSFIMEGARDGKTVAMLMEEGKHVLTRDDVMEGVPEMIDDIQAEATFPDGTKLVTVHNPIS
Bacillus pasteurii urease, sequence (P41020 whole entry): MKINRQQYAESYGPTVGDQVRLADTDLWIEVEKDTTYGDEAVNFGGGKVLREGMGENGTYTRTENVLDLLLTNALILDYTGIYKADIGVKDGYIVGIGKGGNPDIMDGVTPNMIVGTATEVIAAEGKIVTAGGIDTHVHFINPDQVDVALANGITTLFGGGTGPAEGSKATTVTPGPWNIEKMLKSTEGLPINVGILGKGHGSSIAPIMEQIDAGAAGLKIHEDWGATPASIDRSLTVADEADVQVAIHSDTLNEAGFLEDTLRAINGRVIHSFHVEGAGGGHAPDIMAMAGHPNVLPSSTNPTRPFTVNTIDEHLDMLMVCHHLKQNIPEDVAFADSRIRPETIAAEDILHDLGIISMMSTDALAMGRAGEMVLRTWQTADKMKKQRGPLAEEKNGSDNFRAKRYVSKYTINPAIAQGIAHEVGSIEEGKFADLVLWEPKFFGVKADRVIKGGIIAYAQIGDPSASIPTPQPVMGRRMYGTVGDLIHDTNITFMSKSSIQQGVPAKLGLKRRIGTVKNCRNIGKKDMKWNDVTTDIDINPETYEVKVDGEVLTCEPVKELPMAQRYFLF
Jack bean urease, sequence (P07374 whole entry, looked up): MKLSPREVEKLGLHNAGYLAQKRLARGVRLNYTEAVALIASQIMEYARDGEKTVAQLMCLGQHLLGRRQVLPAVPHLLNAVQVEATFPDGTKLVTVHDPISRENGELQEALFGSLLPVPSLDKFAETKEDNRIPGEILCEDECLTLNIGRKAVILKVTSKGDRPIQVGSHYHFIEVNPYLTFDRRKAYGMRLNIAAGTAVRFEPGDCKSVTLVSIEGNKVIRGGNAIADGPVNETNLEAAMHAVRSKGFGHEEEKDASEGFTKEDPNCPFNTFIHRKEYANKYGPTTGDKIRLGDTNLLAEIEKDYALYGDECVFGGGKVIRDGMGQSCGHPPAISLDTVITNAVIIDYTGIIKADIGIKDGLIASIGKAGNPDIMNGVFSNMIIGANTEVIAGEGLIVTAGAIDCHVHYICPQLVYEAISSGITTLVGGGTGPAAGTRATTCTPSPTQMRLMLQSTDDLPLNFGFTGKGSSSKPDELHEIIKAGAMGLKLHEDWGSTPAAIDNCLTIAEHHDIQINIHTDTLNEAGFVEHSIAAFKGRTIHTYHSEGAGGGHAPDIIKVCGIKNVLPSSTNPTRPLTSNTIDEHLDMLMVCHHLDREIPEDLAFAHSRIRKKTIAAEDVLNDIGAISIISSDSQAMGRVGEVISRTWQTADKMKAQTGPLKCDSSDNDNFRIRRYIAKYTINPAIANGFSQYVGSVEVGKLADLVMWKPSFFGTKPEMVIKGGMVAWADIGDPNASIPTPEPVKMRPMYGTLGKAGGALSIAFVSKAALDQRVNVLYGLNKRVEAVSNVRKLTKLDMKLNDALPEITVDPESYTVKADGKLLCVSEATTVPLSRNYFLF

In the case of `O=c1oc2ccccc2c(O)c1C(/C=C/c1ccccc1)c1c(O)c2ccccc2oc1=O` [compound 8], the “Lemna Welv. phytotoxicity (growth inhibition)” value in series [1] (conc. of compound 10 μg/mL) amounted to 13.00; in series [1] (conc. of compound 100 μg/mL) it was 22.99; in series [1] (conc. of compound 1000 μg/mL), 70.0. Moreover, the viability – broadly, a read-out of living cells in per cent, often relative to untreated cells – at 200 µg/mL in series [2] was 100 ± 5.2%. Further, the inhibition constant Ki – broadly, a measure of affinity in units of concentration, obtained from inhibition or displacement – at Jack bean urease came to 21.5 µM; in series [3] (setting [4]) it was 19 ± 0.1 µM. The Type of inhibition result at Jack bean urease was “Competitive”; in series [3] (Urease (BP)), “competitively; also recorded: Competitive”. Also, the “Kmapp” value at Jack bean urease turned out to be 7.5 mM; in series [3] (Urease (BP)), 7.7 mM. Also, the Vmaxapp at Jack bean urease is 104; in series [3] (Urease (BP)), 161.7.
For `CCCCC(c1c(O)c2ccccc2oc1=O)c1c(O)c2ccccc2oc1=O` [compound 6], the figures for the “Lemna Welv. phytotoxicity (growth inhibition)” value in series [1] (conc. of compound 10 μg/mL), in series [1] (conc. of compound 100 μg/mL) and in series [1] (conc. of compound 1000 μg/mL) were 10.60, 42.50 and 69.6, respectively. The same molecule came in with a viability at 200 µg/mL in series [2] of 45.5 ± 4%. In addition, the inhibition constant Ki on Jack bean urease turned out to be 75 ± 0.1 µM; in series [3] (setting [4]), 27.5 µM. In addition, the Type of inhibition result at Jack bean urease is recorded as “Competitive”; in series [3] (Urease (BP)) it was “competitively; also recorded: Competitive”. The “Kmapp” value on Jack bean urease is given as 9.5 mM; in series [3] (Urease (BP)) it was 13.0 mM. Besides, the Vmaxapp is on record as 106 on Jack bean urease and 159.2 in series [3] (Urease (BP)).
Take `CC(c1c(O)c2ccccc2oc1=O)c1c(O)c2ccccc2oc1=O` [compound 3]: the “Lemna Welv. phytotoxicity (growth inhibition)” value in series [1] (conc. of compound 10 μg/mL) is listed as 6.4; in series [1] (conc. of compound 100 μg/mL) it was 22.5; in series [1] (conc. of compound 1000 μg/mL) it was 54.8. The same molecule yielded a viability at 200 µg/mL in series [2] of 100 ± 1%. For the same molecule, the Ki at Jack bean urease was determined as 59.4 ± 0.1 µM; in series [3] (setting [4]) it was 53 ± 0.01 µM. Also, the Type of inhibition entry is reported as “Competitive” at Jack bean urease and “Uncompetitive” in series [3] (Urease (BP)). Also, the results for the “Kmapp” value (at Jack bean urease; in series [3] (Urease (BP))) were 8.3 mM and 4.0 mM, respectively. For the same molecule, the Vmaxapp on Jack bean urease is 108; in series [3] (Urease (BP)), 115.3.
For `O=c1oc2ccccc2c(O)c1C(c1cc[nH]c1)c1c(O)c2ccccc2oc1=O` [compound 5], the “Lemna Welv. phytotoxicity (growth inhibition)” value worked out at 9.00 in series [1] (conc. of compound 10 μg/mL), 25.00 in series [1] (conc. of compound 100 μg/mL) and 61.4 in series [1] (conc. of compound 1000 μg/mL). The molecule further returned a viability at 200 µg/mL in series [2] of 100 ± 0.5%. The Ki was 53.3 ± 0.4 µM at Jack bean urease and 68.1 ± 0.3 µM in series [3] (setting [4]). The Type of inhibition entry is listed as “Competitive” at Jack bean urease and “Uncompetitive” in series [3] (Urease (BP)). Moreover, the figures for the “Kmapp” value (on Jack bean urease; in series [3] (Urease (BP))) were 7.8 mM and 3.9 mM, respectively. Also, the Vmaxapp was 103 on Jack bean urease and 93.7 in series [3] (Urease (BP)). Further, the “selectivity between B.P. urease and J.B. urease” value in series [3] (comparison of potency against both ureases) was “selective for J.B. uraese”.
`O=c1oc2ccccc2c(O)c1C(c1ccncc1)c1c(O)c2ccccc2oc1=O` [compound 2]: the entries for the “Lemna Welv. phytotoxicity (growth inhibition)” value in series [1] (conc. of compound 10 μg/mL), in series [1] (conc. of compound 100 μg/mL) and in series [1] (conc. of compound 1000 μg/mL) were 6.5, 33 and 52.7, respectively. The molecule also displayed a viability at 200 µg/mL in series [2] of 85.1 ± 2.5%. Moreover, the Ki at Jack bean urease turned out to be 71 ± 0.3 µM; in series [3] (setting [4]), 51.3 ± 0.4 µM. The Type of inhibition result is given as “Competitive” on Jack bean urease and “Noncompetitive” in series [3] (Urease (BP)). The “Kmapp” value turned out to be 7.7 mM at Jack bean urease and 5.2 mM in series [3] (Urease (BP)). The Vmaxapp amounted to 106 at Jack bean urease and 98.0 in series [3] (Urease (BP)).
As for `O=c1oc2ccccc2c(O)c1C(c1c(O)c2ccccc2oc1=O)c1c[nH]c2ccccc12` [compound 9], the “Lemna Welv. phytotoxicity (growth inhibition)” value in series [1] (conc. of compound 10 μg/mL) amounted to 41.66. Also, in series [1] (conc. of compound 100 μg/mL), the “Lemna Welv. phytotoxicity (growth inhibition)” value amounted to 50.00. The same molecule returned a viability at 200 µg/mL in series [2] of 100 ± 5.2%. Also, on Jack bean urease, the inhibition constant Ki is 62.9 ± 0.5 µM, the Type of inhibition result is reported as “Competitive”, the “Kmapp” value was 11.6 mM and the Vmaxapp was 108. Besides, in series [3] (Urease (BP)), the Type of inhibition result is “Uncompetitive”, the “Kmapp” value turned out to be 3.2 mM and the Vmaxapp came out at 97.2. The inhibition constant Ki in series [3] (setting [4]) stood at 59.5 ± 0.2 µM.
Turning to `O=c1oc2ccccc2c(O)c1C(c1cccnc1)c1c(O)c2ccccc2oc1=O` [compound 10], the entries for the “Lemna Welv. phytotoxicity (growth inhibition)” value in series [1] (conc. of compound 10 μg/mL), in series [1] (conc. of compound 100 μg/mL) and in series [1] (conc. of compound 1000 μg/mL) were 23.8, 47.6 and 57.14, respectively. In addition, the viability at 200 µg/mL in series [2] is 95.4 ± 5.2%. The values for the Ki (at Jack bean urease; in series [3] (setting [4])) were 68 ± 0.1 µM and 63.6 ± 0.2 µM, respectively. Further, the Type of inhibition result is “Competitive” at Jack bean urease and “competitively” in series [3] (Urease (BP)). Moreover, the entries for the “Kmapp” value (at Jack bean urease; in series [3] (Urease (BP))) were 10.6 mM and 10.3 mM, respectively. Besides, the Vmaxapp at Jack bean urease is on record as 105.
Turning to `COc1cccc(C(c2c(O)c3ccccc3oc2=O)c2c(O)c3ccccc3oc2=O)c1` [compound 1], the “Lemna Welv. phytotoxicity (growth inhibition)” value in series [1] (conc. of compound 10 μg/mL) was 9.9; in series [1] (conc. of compound 100 μg/mL), 60.3; in series [1] (conc. of compound 1000 μg/mL), 80. Also, the viability at 200 µg/mL in series [2] came to 67.5 ± 3.1%. Moreover, the inhibition constant Ki came to 19.3 ± 0.1 µM at Jack bean urease and 15.5 ± 0.2 µM in series [3] (setting [4]). The Type of inhibition result is “Competitive” on Jack bean urease and “competitively; also recorded: Competitive” in series [3] (Urease (BP)). In addition, the “Kmapp” value came to 5.6 mM on Jack bean urease and 11.3 mM in series [3] (Urease (BP)). Also, the values for the Vmaxapp (on Jack bean urease; in series [3] (Urease (BP))) were 109 and 159.3, respectively.
In series [2], `O=c1oc2ccccc2c(O)c1Cc1c(O)c2ccccc2oc1=O` [compound 7] registered a viability at 200 µg/mL of 100 ± 4.3%. Also, on Jack bean urease, the Ki came to 15 ± 0.1 µM, the Type of inhibition entry is “Competitive”, the “Kmapp” value was determined as 7.6 mM and the Vmaxapp came out at 102. In series [3], the Ki turned out to be 13.3 ± 0.2 µM. Further, in series [3] (Urease (BP)), the Type of inhibition result is “competitively; also recorded: Competitive”, the “Kmapp” value turned out to be 9.9 mM and the Vmaxapp was 162.5.
As to `C/C=C/C(c1c(O)c2ccccc2oc1=O)c1c(O)c2ccccc2oc1=O` [compound 4], in series [1] (conc. of compound 10 μg/mL), the “Lemna Welv. phytotoxicity (growth inhibition)” value is 38.23. Also, the “Lemna Welv. phytotoxicity (growth inhibition)” value in series [1] (conc. of compound 100 μg/mL) turned out to be 100. This molecule registered a viability at 200 µg/mL in series [2] of 13.2 ± 4.2%. Moreover, on Jack bean urease, the Ki was found to be 65.9 µM, the Type of inhibition entry is on record as “Competitive”, the “Kmapp” value turned out to be 9.1 mM and the Vmaxapp was 105. For the same molecule, in series [3] (Urease (BP)), the Type of inhibition entry is “Uncompetitive”, the “Kmapp” value is on record as 3.8 mM and the Vmaxapp is reported as 101.0. The Ki in series [3] (setting [4]) turned out to be 48.3 ± 0.01 µM.
